Data reported in patent US20230134760A1, “CAR AND NRF2 DUAL ACTIVATOR AGENTS FOR CYCLOPHOSPHAMIDE-BASED AND DOXORUBICIN-BASED TREATMENTS OF CANCER” (priority 2020, published 2023).

Columns and labels:
HO-1 [1] = test: HO-1 expression in human iPSC-derived cardiomyocytes; assay type: cell-based; details: human iPSC-derived cardiomyocytes, 1, 5, 10 μM
Description: Immortalized triple negative breast cancer cell lines MDA-MB-231 and BT549 were obtained from ATCC (Rockville, Md.). Additionally, the h9c2 cell line was purchased from ATCC (Rockville, Md.). […] Human iPSC-derived cardiomyocytes were maintained in Mtesr plus and supplemented according to protocol. These cells were treated for 2 hrs or an overnight as indicated. Following a 2 hr pretreatment, cells were co-treated with DOX at indicated concentrations for 6 or 22 hours. Following the overnight treatments, RNA or protein was isolated. HPH were seeded in collagen-coated 24 well plates and pretreated for 24 hrs. BT549 were seeded on inverted coverslips. After a 24 hr pretreatment, hepatocytes were co-administered as indicated and coverslips were inserted. The cell lines were used for less than 60 passages. After 24 h treatment, HPH, BT549, MDA-MB-231, and H9c2 cells were washed and a phenol-chloroform extraction was used to isolate total RNA with the TRIzol reagent (ThermoFisher, Rockford, Ill.). Reverse transcription was performed on extracted RNA (1 μg) to produce cDNA using the High Capacity cDNA Archive kit according to manufacturer's instructions (Applied Biosystems, Foster, Calif.). […] Quantification of expression changes was done by the 2^ΔΔCt method, normalizing to GAPDH as the housekeeping gene and determining the fold change compared to control values (n=3).

Nrf2 = Nrf2 expression and nuclear translocation in H9c2 cardiomyocytes (Western blot); assay type: cell-based, rat
From the text: Protein was harvested using cell lysis buffer (Cell Signaling Technology, Danvers, Mass.) with a complete protease inhibitor cocktail (Roche, Mannheim, Germany) prior to homogenizing via sonification. Homogenized protein from treated HPH, H9c2, BT549, and MDA-MB-231 cells were resolved on NuPage Novex Bis-Tris 4-12% gels (Life Technologies) or NuPage Novex Bis-Tris 12% gel and transferred through electrophoresis onto immobilon-P polyvinylidene difluoride (PVDF) membranes. Membranes were blocked with 5% BSA or 5% milk in Tris-Buffer saline with Tween 20 (TBST). Further, membranes were incubated with specific antibodies against human CYP2B6 (1:1000, Abcam), CYP3A4 (1:1000, Millipore Sigma), HO-1 (1:1000, Abcam), cleaved caspase-3 (1:1000 Cell Signaling Technologies), Nrf2 (1:1000, Abcam), TATA-Binding Protein (1:500, Santa Cruz) β-actin (1:3000, Millipore Sigma) at 4° C. overnight. Following overnight incubation, horseradish peroxidase goat anti-mouse or anti-rabbit IgG antibodies were used for secondary incubation. Membranes were developed using SuperSignal West Pico Chemiluminescent Substrate (Thermo Scientific) or Radiance Q (Azure). Two TNBC cell lines, cardiomyocytes, and HPH protein samples were isolated and resolved on a 4-12% or 12% SDS PAGE gel followed by electrophoretic transfer to a PVDF membrane. […]

HO-1 [2] = test: HO-1 expression in H9c2 cardiomyocytes (RT-PCR, Western blot); assay type: cell-based, rat
Description: Immortalized triple negative breast cancer cell lines MDA-MB-231 and BT549 were obtained from ATCC (Rockville, Md.). Additionally, the h9c2 cell line was purchased from ATCC (Rockville, Md.). […] Human iPSC-derived cardiomyocytes were maintained in Mtesr plus and supplemented according to protocol. These cells were treated for 2 hrs or an overnight as indicated. Following a 2 hr pretreatment, cells were co-treated with DOX at indicated concentrations for 6 or 22 hours. Following the overnight treatments, RNA or protein was isolated. HPH were seeded in collagen-coated 24 well plates and pretreated for 24 hrs. BT549 were seeded on inverted coverslips. After a 24 hr pretreatment, hepatocytes were co-administered as indicated and coverslips were inserted. The cell lines were used for less than 60 passages. After 24 h treatment, HPH, BT549, MDA-MB-231, and H9c2 cells were washed and a phenol-chloroform extraction was used to isolate total RNA with the TRIzol reagent (ThermoFisher, Rockford, Ill.). Reverse transcription was performed on extracted RNA (1 μg) to produce cDNA using the High Capacity cDNA Archive kit according to manufacturer's instructions (Applied Biosystems, Foster, Calif.). PCR was performed on an ABI StepOnePlus Real-Time PCR system (Applied Biosystems) using Fast SYBR Green Master Mix (Thermofisher, Rockford, Ill.) to determine gene expression changes. Primer sequences for CYP2B6, CYP3A4, HO-1, and glyceraldehyde-3-phosphate dehydrogenase (GAPDH) are: CYP2B6, [NT] ID NO: 1) and [NT] ID NO: 2); CYP3A4, [NT] ID NO: 3) and [NT] ID NO: 4); HO-1 [NT] ID NO: 5) and [NT] ID NO: 6) GAPDH, [NT] ID NO: 7) and [NT] ID NO: 8). Quantification of expression changes was done by the 2^ΔΔCt method, normalizing to GAPDH as the housekeeping gene and determining the fold change compared to control values (n=3). Protein was harvested using cell lysis buffer (Cell Signaling Technology, Danvers, Mass.) with a complete protease inhibitor cocktail (Roche, Mannheim, Germany) prior to homogenizing via sonification. […]

**Q.** Which results are given for O=C(NCCN=C=S)c1c(-c2ccc3ccccc3c2)nc2sccn12 [DL7076, N-(2-Isothiocyanatoethyl)-6-(naphthalen-2-yl)imidazo[2,1-b]thiazole-5-carboxamide]?
**A.** HO-1 expression (HO-1 [1]): concentration-dependently induced; Nrf2 nuclear accumulation (Nrf2; nuclear extracts of H9c2, 1, 5, 10 μM): accumulating in a concentration dependent manner within the nucleus; Nrf2 expression (Nrf2; whole H9c2 cell lysates, 1, 5, 10 μM): increased Nrf2 expression in a concentration dependent manner; HO-1 mRNA induction (HO-1 [2]; H9c2, 10 μM, 24 hours, vs vehicle control): 3- to 3.5 fold; HO-1 protein induction (HO-1 [2]; H9c2, Western blot): robust induction in the expression of HO-1 was confirmed at a protein level; HO-1 protein expression in the presence of DOX (HO-1 [2]; H9c2, pretreatment, DOX 2.5 μM): concentration dependent protection in the expression of HO-1
